Results: patent publication US12303497B2, “Anti-androgens for the treatment of metastatic castration-sensitive prostate cancer” (priority 2019, dated 2025)

Tests used:
T877A AR mutant = T877A AR mutant (Homo sapiens, UniProt P10275, T878A); settings: literature; cited from earlier work
AR = AR (Homo sapiens, UniProt P10275); settings: cited from earlier work
CYP1A2 = CYP1A2 (Homo sapiens, UniProt P05177); test: In vitro effect on CYP; settings: therapeutically relevant concentrations
CYP2D6 = CYP2D6 (Homo sapiens, UniProt P10635)
BCRP = BCRP (Homo sapiens, UniProt Q9UNQ0); settings: not told
P-gp = P-gp (Homo sapiens, UniProt P08183); settings: not told
CYP2C9 = CYP2C9 (Homo sapiens, UniProt P11712)
CYP2C19 = CYP2C19 (Homo sapiens, UniProt P33261)
[1] = test system: multidrug and toxin extrusions (MATEs); test: In vitro transporter inhibition; format: in vitro ADME
OATP1B1 = OATP1B1 (Homo sapiens, UniProt Q9Y6L6)
CYP2B6 = CYP2B6 (Homo sapiens, UniProt P20813)
[2] = molecular target: organic cation transporter 2 (OCT2) (Homo sapiens, UniProt O15244)
[3] = human, in vivo
[4] = molecular target: organic anion transporter 3 (OAT3) (Homo sapiens, UniProt Q8TCC7)
CYP2C8 = molecular target: T1, CYP2C8 (Homo sapiens, UniProt P10632)
T1 sequence (P10632 1-490): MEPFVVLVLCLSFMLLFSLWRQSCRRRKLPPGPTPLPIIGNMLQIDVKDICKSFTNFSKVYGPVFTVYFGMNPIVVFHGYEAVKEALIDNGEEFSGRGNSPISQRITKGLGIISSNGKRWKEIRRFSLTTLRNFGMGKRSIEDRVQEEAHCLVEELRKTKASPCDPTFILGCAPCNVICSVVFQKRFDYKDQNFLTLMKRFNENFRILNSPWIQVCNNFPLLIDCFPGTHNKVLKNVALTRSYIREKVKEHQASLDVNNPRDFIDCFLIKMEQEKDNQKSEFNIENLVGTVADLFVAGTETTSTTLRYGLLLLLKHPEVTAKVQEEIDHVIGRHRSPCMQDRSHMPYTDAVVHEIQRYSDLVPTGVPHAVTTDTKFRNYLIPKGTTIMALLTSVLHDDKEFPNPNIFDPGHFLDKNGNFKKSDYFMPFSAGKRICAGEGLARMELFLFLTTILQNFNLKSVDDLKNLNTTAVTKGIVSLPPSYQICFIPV

OATP1B3 = OATP1B3 (Homo sapiens, UniProt Q9NPD5)
[5] = molecular target: organic anion transporter 1 (Homo sapiens, UniProt Q4U2R8)
CYP3A4 = CYP3A4 (Homo sapiens, UniProt P08684)
[6] = Single oral administration of radiolabeled apalutamide (AUC share, excretion); format: in vivo
Plasma protein binding = format: in vitro ADME
[7] = up to 70 days after single oral radiolabeled dose

Sequence of CYP2B6 (P20813 whole entry): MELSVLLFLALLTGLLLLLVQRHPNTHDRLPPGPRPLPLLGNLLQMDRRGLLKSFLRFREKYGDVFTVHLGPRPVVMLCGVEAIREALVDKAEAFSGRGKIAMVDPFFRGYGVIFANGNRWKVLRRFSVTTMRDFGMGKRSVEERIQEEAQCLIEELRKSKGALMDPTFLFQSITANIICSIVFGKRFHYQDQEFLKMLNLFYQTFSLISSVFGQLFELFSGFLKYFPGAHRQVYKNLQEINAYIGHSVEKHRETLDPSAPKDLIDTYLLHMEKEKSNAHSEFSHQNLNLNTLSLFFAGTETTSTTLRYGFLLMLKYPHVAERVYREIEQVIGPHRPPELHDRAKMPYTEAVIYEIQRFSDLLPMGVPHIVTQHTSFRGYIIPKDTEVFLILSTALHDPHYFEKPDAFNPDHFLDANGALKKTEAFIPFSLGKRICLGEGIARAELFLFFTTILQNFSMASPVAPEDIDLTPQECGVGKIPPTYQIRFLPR
Sequence of OATP1B1 (Q9Y6L6 whole entry): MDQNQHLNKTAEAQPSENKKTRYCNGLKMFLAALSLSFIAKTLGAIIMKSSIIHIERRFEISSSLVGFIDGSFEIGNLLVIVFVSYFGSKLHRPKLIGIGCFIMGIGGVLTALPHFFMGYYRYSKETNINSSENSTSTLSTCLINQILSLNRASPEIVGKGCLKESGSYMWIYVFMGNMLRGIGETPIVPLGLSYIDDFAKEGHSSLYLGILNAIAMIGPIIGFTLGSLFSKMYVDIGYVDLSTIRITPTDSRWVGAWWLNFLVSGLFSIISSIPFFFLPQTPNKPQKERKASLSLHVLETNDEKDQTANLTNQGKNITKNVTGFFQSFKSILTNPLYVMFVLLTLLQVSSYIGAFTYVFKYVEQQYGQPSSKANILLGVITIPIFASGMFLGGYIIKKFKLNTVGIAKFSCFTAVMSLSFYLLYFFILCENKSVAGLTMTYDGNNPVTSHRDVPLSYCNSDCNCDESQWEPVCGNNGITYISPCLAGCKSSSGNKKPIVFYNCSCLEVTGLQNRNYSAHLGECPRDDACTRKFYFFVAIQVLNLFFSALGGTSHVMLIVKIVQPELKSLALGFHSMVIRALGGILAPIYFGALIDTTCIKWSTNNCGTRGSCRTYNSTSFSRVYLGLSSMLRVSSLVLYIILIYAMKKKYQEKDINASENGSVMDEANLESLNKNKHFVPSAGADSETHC
Sequence of CYP2C9 (P11712 whole entry): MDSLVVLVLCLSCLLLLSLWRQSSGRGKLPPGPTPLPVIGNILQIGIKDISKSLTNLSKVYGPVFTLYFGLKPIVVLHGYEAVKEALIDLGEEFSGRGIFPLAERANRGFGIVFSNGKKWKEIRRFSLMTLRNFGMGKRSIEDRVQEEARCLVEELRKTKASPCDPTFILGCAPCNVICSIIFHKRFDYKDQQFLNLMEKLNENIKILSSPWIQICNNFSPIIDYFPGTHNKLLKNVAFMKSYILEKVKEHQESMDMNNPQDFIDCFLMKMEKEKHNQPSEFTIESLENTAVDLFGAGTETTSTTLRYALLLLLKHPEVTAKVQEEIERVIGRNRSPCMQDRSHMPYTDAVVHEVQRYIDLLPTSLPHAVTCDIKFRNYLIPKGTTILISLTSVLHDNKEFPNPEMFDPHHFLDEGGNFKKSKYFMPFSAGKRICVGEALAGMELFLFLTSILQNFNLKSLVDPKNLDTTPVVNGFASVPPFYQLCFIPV
Sequence of P-gp (P08183 whole entry): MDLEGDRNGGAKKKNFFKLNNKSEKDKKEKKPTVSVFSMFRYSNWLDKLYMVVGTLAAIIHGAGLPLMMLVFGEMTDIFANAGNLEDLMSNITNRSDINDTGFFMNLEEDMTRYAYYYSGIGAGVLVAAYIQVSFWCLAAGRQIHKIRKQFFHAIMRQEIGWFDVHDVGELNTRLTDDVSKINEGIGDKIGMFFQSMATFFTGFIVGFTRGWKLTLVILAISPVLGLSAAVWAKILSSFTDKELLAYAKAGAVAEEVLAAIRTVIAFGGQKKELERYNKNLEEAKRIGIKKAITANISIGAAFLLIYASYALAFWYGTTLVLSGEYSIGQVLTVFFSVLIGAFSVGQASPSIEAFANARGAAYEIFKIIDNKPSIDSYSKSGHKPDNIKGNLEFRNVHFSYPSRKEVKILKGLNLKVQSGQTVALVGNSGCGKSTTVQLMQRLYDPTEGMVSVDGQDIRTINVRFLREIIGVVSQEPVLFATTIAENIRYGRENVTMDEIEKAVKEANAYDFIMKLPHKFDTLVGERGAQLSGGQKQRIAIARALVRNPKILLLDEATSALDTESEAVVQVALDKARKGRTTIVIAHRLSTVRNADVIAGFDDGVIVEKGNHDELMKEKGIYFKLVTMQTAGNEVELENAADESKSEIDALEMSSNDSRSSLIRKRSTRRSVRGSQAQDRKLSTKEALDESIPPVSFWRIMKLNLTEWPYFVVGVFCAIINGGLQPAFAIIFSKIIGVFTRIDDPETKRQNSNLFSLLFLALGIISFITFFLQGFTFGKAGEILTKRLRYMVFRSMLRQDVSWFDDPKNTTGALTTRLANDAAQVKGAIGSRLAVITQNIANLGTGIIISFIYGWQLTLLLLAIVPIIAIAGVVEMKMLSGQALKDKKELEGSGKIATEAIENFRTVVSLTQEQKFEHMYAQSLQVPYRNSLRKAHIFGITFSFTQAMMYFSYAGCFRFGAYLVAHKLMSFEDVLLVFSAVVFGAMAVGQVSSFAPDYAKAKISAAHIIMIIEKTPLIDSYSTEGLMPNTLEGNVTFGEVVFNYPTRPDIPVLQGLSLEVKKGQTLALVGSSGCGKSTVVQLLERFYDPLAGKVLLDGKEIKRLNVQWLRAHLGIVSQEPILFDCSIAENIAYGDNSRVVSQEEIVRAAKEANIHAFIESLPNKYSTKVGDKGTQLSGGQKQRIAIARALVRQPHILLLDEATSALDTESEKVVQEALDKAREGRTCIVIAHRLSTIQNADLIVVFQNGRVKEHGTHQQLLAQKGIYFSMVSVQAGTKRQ
Sequence of organic cation transporter 2 (OCT2) (O15244 whole entry): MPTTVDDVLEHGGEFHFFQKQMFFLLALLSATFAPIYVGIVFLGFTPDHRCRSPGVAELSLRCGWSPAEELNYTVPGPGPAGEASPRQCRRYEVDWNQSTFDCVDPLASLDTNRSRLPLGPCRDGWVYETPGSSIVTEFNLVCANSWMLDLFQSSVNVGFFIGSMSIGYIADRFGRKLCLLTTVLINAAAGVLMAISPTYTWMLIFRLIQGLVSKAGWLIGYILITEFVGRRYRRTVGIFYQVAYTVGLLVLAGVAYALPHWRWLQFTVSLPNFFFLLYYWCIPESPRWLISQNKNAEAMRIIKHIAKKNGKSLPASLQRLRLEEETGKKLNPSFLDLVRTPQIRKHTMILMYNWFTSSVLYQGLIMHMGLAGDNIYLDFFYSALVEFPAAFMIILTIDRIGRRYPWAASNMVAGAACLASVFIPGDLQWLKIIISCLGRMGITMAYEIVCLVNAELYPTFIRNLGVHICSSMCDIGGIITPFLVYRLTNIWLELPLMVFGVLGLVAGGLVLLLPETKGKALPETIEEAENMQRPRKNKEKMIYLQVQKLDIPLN
Sequence of organic anion transporter 1 (Q4U2R8 whole entry): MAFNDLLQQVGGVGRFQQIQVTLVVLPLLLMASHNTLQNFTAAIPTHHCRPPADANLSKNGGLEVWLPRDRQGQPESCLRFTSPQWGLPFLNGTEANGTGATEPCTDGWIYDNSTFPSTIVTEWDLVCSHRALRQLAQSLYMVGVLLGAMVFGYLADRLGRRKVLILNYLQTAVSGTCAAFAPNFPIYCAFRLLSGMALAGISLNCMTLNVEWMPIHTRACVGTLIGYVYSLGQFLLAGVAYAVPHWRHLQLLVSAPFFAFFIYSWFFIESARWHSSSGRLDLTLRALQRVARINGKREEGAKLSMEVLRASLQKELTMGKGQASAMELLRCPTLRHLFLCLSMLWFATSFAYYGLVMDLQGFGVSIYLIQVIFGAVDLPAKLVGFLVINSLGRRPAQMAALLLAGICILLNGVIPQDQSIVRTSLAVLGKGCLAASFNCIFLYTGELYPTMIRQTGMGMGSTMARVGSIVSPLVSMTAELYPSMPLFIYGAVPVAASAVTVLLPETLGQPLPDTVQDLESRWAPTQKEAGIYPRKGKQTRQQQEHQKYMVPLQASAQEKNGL
Sequence of AR (P10275 whole entry): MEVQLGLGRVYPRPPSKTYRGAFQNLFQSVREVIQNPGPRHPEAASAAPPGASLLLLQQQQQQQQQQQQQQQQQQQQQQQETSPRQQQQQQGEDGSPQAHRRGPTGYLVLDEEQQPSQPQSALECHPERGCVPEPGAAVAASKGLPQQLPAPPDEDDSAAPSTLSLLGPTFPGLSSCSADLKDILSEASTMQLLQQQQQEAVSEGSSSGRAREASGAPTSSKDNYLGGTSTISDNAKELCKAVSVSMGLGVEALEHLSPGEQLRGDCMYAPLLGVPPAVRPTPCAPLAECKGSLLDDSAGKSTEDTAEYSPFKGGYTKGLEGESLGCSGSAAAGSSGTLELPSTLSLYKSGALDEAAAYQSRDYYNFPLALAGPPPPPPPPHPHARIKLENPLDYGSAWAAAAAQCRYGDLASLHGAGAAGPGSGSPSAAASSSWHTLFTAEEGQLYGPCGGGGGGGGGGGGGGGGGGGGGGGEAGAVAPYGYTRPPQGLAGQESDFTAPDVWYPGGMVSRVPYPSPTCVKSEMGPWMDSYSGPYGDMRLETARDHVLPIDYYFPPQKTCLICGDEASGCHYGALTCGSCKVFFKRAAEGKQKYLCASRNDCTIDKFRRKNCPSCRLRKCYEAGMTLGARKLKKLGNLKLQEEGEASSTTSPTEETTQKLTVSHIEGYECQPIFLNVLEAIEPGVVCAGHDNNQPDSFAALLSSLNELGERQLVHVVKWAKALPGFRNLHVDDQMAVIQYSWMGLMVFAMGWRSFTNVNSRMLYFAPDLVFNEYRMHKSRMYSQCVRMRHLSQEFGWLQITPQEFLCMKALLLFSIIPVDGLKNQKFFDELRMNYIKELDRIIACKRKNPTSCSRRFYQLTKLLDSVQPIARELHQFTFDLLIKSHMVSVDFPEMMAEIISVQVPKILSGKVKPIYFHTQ
Sequence of T877A AR mutant (P10275 whole entry T878A): as the sequence (P10275 whole entry) above, with T878A counted along it

CC(C)(O)C(=O)Nc1ccc([N+](=O)[O-])c(C(F)(F)F)c1 [hydroxyflutamide]
Activity in T877A AR mutant (T877A AR mutant): AR agonists

CC(O)c1cc(C(=O)N[C@@H](C)Cn2ccc(-c3ccc(C#N)c(Cl)c3)n2)n[nH]1 (mixture of isomers) [Darolutamide, N-{(2S)-1-[3-(3-chloro-4-cyanophenyl)-1H-pyrazol-1-yl]propan-2-yl}-5-(1-hydroxyethyl)-1H-pyrazole-3-carboxamide]
Affinity of binding to AR (AR): high affinity

N-desmethyl apalutamide
Effect on CYP1A2 (CYP1A2): do not affect | Effect on CYP2D6 (CYP2D6): do not affect | Substrate for BCRP (BCRP): not | Substrate for P-gp (P-gp): substrates | CYP2C9 inhibition (CYP2C9): weak inhibitors | CYP2C19 inhibition (CYP2C19): weak inhibitors | Inhibition of MATEs [1]: inhibit | Substrate for OATP1B1 (OATP1B1): not | CYP2B6 inhibition (CYP2B6): moderate inhibitors | Inhibition of OCT2 [2]: inhibit | AUC at steady-state, mean [3]: 124 µg·h/mL | Cmax at steady-state, mean [3]: 5900 ng/mL | Pharmacokinetics in specific populations [3]: No clinically significant differences | Inhibition of OAT3 [4]: inhibit | CYP2C8 inhibition (CYP2C8): moderate inhibitors | Substrate for OATP1B3 (OATP1B3): not | Inhibition of organic anion transporter 1 [5]: do not inhibit | CYP3A4 inhibition (CYP3A4): weak inhibitors | Share of the total AUC ([6]; single oral radiolabeled apalutamide 240 mg): 44% | Dose recovered in feces as this compound [6, 7]: 2% | Dose recovered in urine as this compound [6, 7]: 2.7% | Bound to plasma proteins (Plasma protein binding): 95%
